For series [1], the target named is T1, human KGA (Homo sapiens, UniProt O94925).
T1 construct: a KGA cDNA fragment of 1644 bp (residues Leu123-Leu669); His-tag (N); made in house; host or cells: Escherichia coli BL21(DE3)pLysS
T1 sequence (O94925 123-669): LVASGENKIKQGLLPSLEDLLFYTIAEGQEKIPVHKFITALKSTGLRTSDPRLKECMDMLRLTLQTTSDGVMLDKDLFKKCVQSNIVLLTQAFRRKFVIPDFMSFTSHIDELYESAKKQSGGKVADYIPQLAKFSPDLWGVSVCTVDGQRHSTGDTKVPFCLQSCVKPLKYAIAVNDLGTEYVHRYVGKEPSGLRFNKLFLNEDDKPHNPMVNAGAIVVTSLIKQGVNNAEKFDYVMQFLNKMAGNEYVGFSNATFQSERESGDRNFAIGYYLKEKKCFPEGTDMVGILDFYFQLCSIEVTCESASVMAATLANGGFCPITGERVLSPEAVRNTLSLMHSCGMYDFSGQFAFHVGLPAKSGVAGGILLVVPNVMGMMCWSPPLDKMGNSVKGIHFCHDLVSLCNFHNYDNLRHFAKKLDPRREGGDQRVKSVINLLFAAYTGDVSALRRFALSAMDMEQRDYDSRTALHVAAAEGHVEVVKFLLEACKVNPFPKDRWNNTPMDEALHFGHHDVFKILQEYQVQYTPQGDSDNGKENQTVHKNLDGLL
Put plainly: Two-step glutaminase activity assay, purified recombinant KGA. Type of series: biochemical. As to conditions: recombinant wild-type KGA, absence of phosphate. As for the experimental part:
The cDNA fragment of KGA digested with BamHI and NotI at each end was ligated into the pET28a(+) vector (Novagen) and expressed as a his-tag fusion. Escherichia coli strain BL21(DE3)pLysS was transformed with the resulting plasmid, pET28a(+)-KGA, and then cultured in Luria-Bertani broth medium in the presence of kanamycin. […] The cells were harvested by centrifugation at 10,000 rpm for 15 min at 4°C and resuspended in lysis buffer (5 mM Tris-HCl [pH 8.0], 50 mM NaH2PO4, 300 mM NaCl and 10 mM imidazole) for sonication. […] The eluted protein was exchanged to 20 mM Tris-HCl (pH 8.0), 300 mM NaCl, 10% glycerol, and 2 mM dithiothreitol by using a PD-10 Desalting column (GE Healthcare). The concentration of the purified protein was determined by use of the Bio-Rad protein assay reagent with a standard curve plotted against bovine serum albumin. […] A microtiter assay format was used to facilitate the collection of multiple data points. […] Samples were incubated at 25°C for 10 min and then 10 μl of 200 mM glutamine were added to the reaction mix. After adding glutamine, the reactions were incubated at 37°C for 60 min and then quenched by the addition of 10 μl of 0.6 M HCl. Subsequently, 100 μl of a second reaction mixture (3.7 units of purified bovine liver glutamate dehydrogenase, 160 mM Tris/acetate [pH 9.4], 400 mM hydrazine, 5 mM ADP and 2 mM NAD^+) was added to the stopped first reaction mixture and incubated for 30 min at 25°C. The absorbance at 340 nm was measured using a Wallac Victor2V plate reader (PerkinElmer), fitted with a 340 nm excitation filter. Sample absorbance was measured against a blank, containing no human glutaminase. The kinetic constants Km and Vmax were determined by using Kaleida Graph software (Synergy Software) to calculate a non-linear least-squares fit for all the data points to the Michaelis-Menten equation.

Series [2] deals with T2, human GAB (Homo sapiens, UniProt Q9UI32).
T2 construct: Equivalent construct of GAB (Pro56-Val602) was amplified from the cDNA clone; His-tag (N); made in house; host or cells: Escherichia coli C41(DE3)pLysS
T2 sequence (Q9UI32 56-602): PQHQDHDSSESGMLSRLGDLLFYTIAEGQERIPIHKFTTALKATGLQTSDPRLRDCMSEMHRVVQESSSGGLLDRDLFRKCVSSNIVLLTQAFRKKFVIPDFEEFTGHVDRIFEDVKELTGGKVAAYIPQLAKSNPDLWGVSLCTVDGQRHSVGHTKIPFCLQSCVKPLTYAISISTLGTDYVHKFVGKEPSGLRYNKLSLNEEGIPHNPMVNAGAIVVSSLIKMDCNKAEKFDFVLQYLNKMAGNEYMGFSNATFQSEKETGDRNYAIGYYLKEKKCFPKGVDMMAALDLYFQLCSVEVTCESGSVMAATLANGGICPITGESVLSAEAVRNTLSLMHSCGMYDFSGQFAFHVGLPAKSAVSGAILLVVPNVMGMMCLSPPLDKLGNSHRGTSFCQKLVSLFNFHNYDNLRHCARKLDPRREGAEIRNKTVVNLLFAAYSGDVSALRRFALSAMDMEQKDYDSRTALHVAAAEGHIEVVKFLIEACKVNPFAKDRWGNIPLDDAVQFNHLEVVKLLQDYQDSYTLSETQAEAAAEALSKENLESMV
As to the kind of experiment: Two-step glutaminase activity assay, purified recombinant GAB. Type of series: biochemical. As to conditions: recombinant wild-type GAB, absence of phosphate. Here is the method:
Equivalent construct of GAB […]) was amplified from the cDNA clone MGC: 195512 IMAGE: 100066375 (Invitrogen Inc., USA). The sequences of the primers were: [NT] (BamHI) and [NT] (Notl). The resultant GAB-expression vector, pET28a(+)-GAB, was transformed into Escherichia coli strain […] Biotech Co., Taiwan). The expression protocol was followed as that protocol of KGA construct. The cells after induction were collected and resuspended in lysis buffer (50 mM Tris-HCl pH 8.5, 500 mM NaCl, 10% glycerol, and 10 mM β-ME) for sonication. […] His-tagged GAB was eluted with lysis buffer containing 200 mM imidazole. The eluted GAB was exchanged to 20 mM Tris-HCl (pH 8.0), 300 mM NaCl, 50% glycerol, and 2 mM dithiothreitol by using a PD-10 Desalting column (GE Healthcare). Human glutaminase activity was measured using a two-step assay as described previously. A microtiter assay format was used to facilitate the collection of multiple data points. […] Samples were incubated at 25°C for 10 min and then 10 μl of 200 mM glutamine were added to the reaction mix. After adding glutamine, the reactions were incubated at 37°C for 60 min and then quenched by the addition of 10 μl of 0.6 M HCl. Subsequently, 100 μl of a second reaction mixture (3.7 units of purified bovine liver glutamate dehydrogenase, 160 mM Tris/acetate [pH 9.4], 400 mM hydrazine, 5 mM ADP and 2 mM NAD^+) was added to the stopped first reaction mixture and incubated for 30 min at 25°C. The absorbance at 340 nm was measured using a Wallac Victor2V plate reader (PerkinElmer), fitted with a 340 nm excitation filter. Sample absorbance was measured against a blank, containing no human glutaminase. The kinetic constants Km and Vmax were determined by using Kaleida Graph software (Synergy Software) to calculate a non-linear least-squares fit for all the data points to the Michaelis-Menten equation.

Series [3] in a line: Carcinoma cell growth inhibition (cytotoxicity), A549. Conditions: human, A549 lung carcinoma cells.
Method: (§1) The cancer cell lines including HepG2 and A549 were obtained from American Type Culture Collection (Rockville, MD). The cells were cultured in DMEM medium with 10% FBS (v/v) and penicillin (100 units/ml)/ streptomycin (100 mg/ml). Cultures were maintained in a humidified incubator at 37°C in 5% CO2/95% air. Dulbecco's Modified Eagle Medium (DMEM), fetal bovine serum (FBS), penicillin, streptomycin, and all other tissue culture reagents were obtained from GIBCO/BRL Life Technologies (Grand Island, NY).
(§2) A549 lung carcinoma and HepG2 hepatocarcinoma cells were seeded at 4000 and 10000 cells/well respectively in 96-well plates, as previously described for cell growth inhibition assay [27, 44].
Series [4] can be described thus: Carcinoma cell growth inhibition (cytotoxicity), HepG2. Conditions: human, HepG2 hepatocarcinoma cells.
Method: as §1, §2
Series [5] can be described thus: in vitro. As to conditions: human.
Method: as §1, §2
Series [6] can be described thus: in vitro. As to conditions: human. The source holds these as a separate data set.
Method: as §1, §2
Series [7] has as its system HepG2 cells. Put plainly: Colony (focus) formation assay, HepG2. It counts as cell-based, human. Conditions: HepG2, 21-day treatment.
Method: A549 lung carcinoma and HepG2 hepatocarcinoma cells were seeded at 4000 and 10000 cells/well respectively in 96-well plates, as previously described for cell growth inhibition assay [27, 44]. To assess anchorage-dependent colony formation effect, the cells (1000 cells/well) were seeded in a six-well plate for 20-24 h prior to treatments of vehicle DMSO or compounds as indicated. Culture medium containing vehicle DMSO or compounds as indicated was changed twice a week. After a 21-day treatment, the cell colonies were rinsed with PBS, fixed in 3:1 ratio of methanol and acetic acid, stained with 0.05% crystal violet.
For series [8], the system named is AMPK. As to the kind of experiment: Western blot of AMPK_ULK1 axis signaling in HepG2 cells. Type of series: cell-based, human. As to conditions: co-treatment with AV-1. A general note: In western blotting, separated proteins are transferred to a membrane and probed.
Method: (§3) The cells were cultured in DMEM medium with 10% FBS (v/v) and penicillin (100 units/ml)/ streptomycin (100 mg/ml). Cultures were maintained in a humidified incubator at 37°C in 5% CO2/95% air. Dulbecco's Modified Eagle Medium (DMEM), fetal bovine serum (FBS), penicillin, streptomycin, and all other tissue culture reagents were obtained from GIBCO/BRL Life Technologies (Grand Island, NY). Antibodies to GAPDH, caspase 3, LC3B, p-ULK1(S317), p-ULK1(S757), Beclin1, p-BCL2(S70), p70S6K, p-p70S6K(T389), 4E-BP1, α-tubulin, 4E-BP, p-4E-BP(S65), p-eIF4B(S422), mTOR, p-mTOR(S2481), p-mTOR(S2448), p-Raptor(S792), Tuberin, p-Tuberin(T1462), p-Tuberin(T1387), p-AMPK(T172) and p-AMPK(S108) were from Cell Signaling Technology; antibody to p-Beclin1(S15) was from Abbiotec; antibodies to KGA and Raptor were from Abcam; antibodies to BCL2 were from Upstate Biotechnology; antibodies to α-tubulin were from Chemicon International; antibodies to ULK1, β-tublin and AMPK were from GeneTex; antibodies to GAB were from abnova and Gene Tex; antibodies to GAC were from ProteinTech Group; antibodies to p-mTOR(S2446) and AMPK were from Millipore; anti-mouse and anti-rabbit IgGs were obtained from PerkinElmer. […] Compound C was obtained from Sigma–Aldrich (St. Louis, MO). Western blotting was performed as described [40].
The subject of series [9] is mTORC1. Put plainly: Western blot of mTORC1 components and downstream targets in HepG2 cells. It counts as cell-based, human. As to conditions: co-treatment with AV-1.
Method: as §3

From publication PMC4171615, “Discovery of selective inhibitors of Glutaminase-2, which inhibit mTORC1, activate autophagy and inhibit proliferation in cancer cells” (Oncotarget, 2014) come the findings set out here.

Usually IC50 stands for the concentration that inhibits the measured activity by half.

Regarding `CCCCCCCC/C=C\CCCCCCCc1cc(O)cc(O)c1` [AK-1], the half-inhibitory concentration (IC50) is 73 ± 3 µM in series [1] and 2.9 ± 0.6 µM in series [2].

Turning to `CCCCCCCC/C=C\CCCCCCCc1cc(O)c(C)c(O)c1` [AK-3], the IC50 turned out to be 76.9 ± 0.8 µM in series [1] and 2.7 µM in series [2].

As for `CCCCCC/C=C\CCCCCCCc1cc(O)c(C)c(O)c1` [AK-4], the IC50 in series [1] was found to be 59.8 ± 4.6 µM.

`COc1cc(O)cc(CCCCCCC/C=C\CCCCCCCc2cc(O)c(C)c(O)c2)c1` [AK-5]: the results for the IC50 in [1] and in series [2] were 70 ± 1.6 µM and 2.3 ± 0.4 µM, respectively.

On to `COc1cc(O)cc(CCCCC/C=C\CCCCCCCc2cc(O)c(C)c(O)c2)c1` [AK-6], for which the IC50 in series [1] was 36.7 ± 3.2 µM; in series [2], 2.5 ± 0.3 µM.

Regarding `Cc1c(O)cc(CCCCCCC/C=C\CCCCCCCc2cc(O)c(C)c(O)c2)cc1O` [AK-7], the CC50 in series [3] and in series [4] was over 100 µM each time. In addition, the IC50 in [1] came to 17.5 ± 2.6 µM; in series [2] it was 2.9 ± 0.8 µM.

Turning to `Cc1c(O)cc(CCCCC/C=C\CCCCCCCc2cc(O)c(C)c(O)c2)cc1O` [AK-8], the IC50 in series [1] was found to be 13.9 ± 1.5 µM; in [2] it was 3.1 ± 0.5 µM.

For `Cc1c(O)cc(CCCCCCC/C=C\CCCCCCCc2cc(O)cc(O)c2)cc1O` [AK-9], the IC50 was 11.9 ± 1.2 µM in [1] and 2.3 ± 0.5 µM in series [2].

For `Cc1c(O)cc(CCCCCCC/C=C\CCCCCc2cc(O)cc(O)c2)cc1O` [AK-10], the concentration for half-maximal inhibition (IC50) amounted to 11.7 ± 1.3 µM in [1] and 2.1 ± 0.1 µM in series [2].

For the molecule `COc1cc(O)cc(CCCCCCC/C=C\CCCCCCCc2cc(O)cc(O)c2)c1` [AK-11], the IC50 in series [1] is 13.4 ± 2.2 µM; in [2], 2.9 ± 0.5 µM.

As to `COc1cc(O)cc(CCCCCCC/C=C\CCCCCc2cc(O)cc(O)c2)c1` [AK-12], the values for the CC50 in [3] and in [4] were over 100 µM and 84.6 ± 2.3 µM, respectively. Besides, the IC50 was 9.6 ± 1.2 µM in [1] and 2.9 ± 0.6 µM in series [2].

Turning to `CCCCCCCCCCCCCC(CC1=C(O)C(=O)C=C(OC)C1=O)OC(C)=O` (centres unmarked) [AV-3], the CC50 in series [3] and in series [4] was over 50 µM each time. Also, the IC50 in series [2] is 25.1 ± 4.5 µM.

As for `CCCCCCCCCCCC(CC1=C(O)C(=O)C=C(OC)C1=O)OC(C)=O` (centres unmarked) [AV-4], the CC50 in series [3] and in series [4] was over 50 µM throughout.

On to `CCCCCCCCCCCCCC1=C(O)C(=O)C=C(OC)C1=O` [AV-7], for which the CC50 in series [5] and in [6] was over 50 µM each time.

Consider `CCCCCCCCCCCC(Cc1cc(O)cc(OC)c1O)OC(C)=O` (centres unmarked) [AV-8], for which the CC50 in series [3] was determined as 11.6 ± 0.4 µM; in series [4], 18.8 ± 0.7 µM.

For the molecule `CCCCCCCCCCCC(Cc1cc(OC(C)=O)cc(OC)c1O)OC(C)=O` (centres unmarked) [AV-9], the CC50 was 13 ± 2.1 µM in series [3] and 13.7 ± 2.2 µM in series [4]. For the same molecule, the IC50 in series [2] was 31.7 ± 6.7 µM.

As to `CCCCCCCCCCCC(Cc1c(O)c(OC)cc(O)c1C=O)OC(C)=O` (centres unmarked) [AV-10], the results for the CC50 in series [3] and in series [4] were 22.1 ± 1.6 µM and 21.2 ± 0.8 µM, respectively. For the same molecule, the IC50 in series [2] was 23.1 ± 4.9 µM.

Take `CCCCCCCCCCCCCC(Cc1cc(OC(C)=O)cc(OC)c1O)OC(C)=O` (centres unmarked) [AV-11]: the values for the CC50 in [3] and in series [4] were 5 ± 0.8 µM and 5.2 ± 0.3 µM, respectively. The IC50 in series [1] worked out at 69 ± 3.1 µM; in [2] it was 5.7 ± 1.1 µM.

As for `CCCCCCCCCCCCCC(O)Cc1cc(O)cc(OC)c1` (centres unmarked) [AV-12], the CC50 in series [3] and in [4] was over 50 µM in each case. The figures for the IC50 in series [1] and in series [2] were 52.4 ± 15.5 µM and 7.6 ± 2 µM, respectively.

In the case of `CCCCCCCc1cc(O)cc(OC)c1` [AV-13], the CC50 in series [3] was 35.5 ± 2.6 µM; in [4], 36.9 ± 2 µM. Also, the concentration for half-maximal inhibition (IC50) in [1] was 52.7 ± 2.7 µM.

With `CCCCCCCCCCCCCC(=O)Cc1cc(O)cc(OC)c1OC(C)=O` [AV-14], the CC50 in series [3] and in [4] was over 50 µM throughout. The IC50 in series [1] turned out to be 41 ± 5.2 µM; in series [2] it was 4.7 ± 1.3 µM.

In series [7], `O=C(Cc1ccccc1)Nc1nnc(CCSCCc2nnc(NC(=O)Cc3ccccc3)s2)s1` [BPTES] gave an IC50 of 2.8 ± 0.4 µM.

For the molecule `[N-]=[N+]=CC(=O)CC[C@H](N)C(=O)O` [DON, reference compound], the IC50 in series [1] was found to be 59.9 ± 8.8 µM.

Turning to `c1cc(-c2cnn3cc(-c4ccc(OCCN5CCCCC5)cc4)cnc23)ccn1` [compound C], the “Effect on the AV-1 decreased phosphorylation of ULK1 Ser757” value in [8] is reported as “reversed”. Moreover, the “Effect on AV-1 induced phosphorylation of Raptor at Ser792 and Tuberin at Ser1387” value in [9] is “attenuated”.
